Assay results taken from ChEMBL document CHEMBL6182939, “Searching for Synthetic Opioid Rescue Agents. 2: Identification of an Ultra-Potent Synthetic Opioid Rescue Agent” (J Med Chem, 2025).

Key:
[1] = target: Cytochrome P450 3A4 (Homo sapiens, UniProt P08684); assay: (§1) Inhibition of CYP3A4 in human liver microsomes at 10 uM relative to control; format: ADME, Microsome; details: microsomes, 10 µM
[2] = target: Cytochrome P450 2D6 (Homo sapiens, UniProt P10635); assay: (§2) Inhibition of CYP2D6 in human liver microsomes at 10 uM relative to control; format: ADME, Microsome; details: microsomes, 10 µM
[3] = target: T1, Cytochrome P450 1A2 (Homo sapiens, UniProt P05177); assay: (§3) Inhibition of CYP1A2 in human liver microsomes at 10 uM relative to control; format: ADME, Microsome; details: microsomes, 10 µM
T1 sequence (P05177 whole entry): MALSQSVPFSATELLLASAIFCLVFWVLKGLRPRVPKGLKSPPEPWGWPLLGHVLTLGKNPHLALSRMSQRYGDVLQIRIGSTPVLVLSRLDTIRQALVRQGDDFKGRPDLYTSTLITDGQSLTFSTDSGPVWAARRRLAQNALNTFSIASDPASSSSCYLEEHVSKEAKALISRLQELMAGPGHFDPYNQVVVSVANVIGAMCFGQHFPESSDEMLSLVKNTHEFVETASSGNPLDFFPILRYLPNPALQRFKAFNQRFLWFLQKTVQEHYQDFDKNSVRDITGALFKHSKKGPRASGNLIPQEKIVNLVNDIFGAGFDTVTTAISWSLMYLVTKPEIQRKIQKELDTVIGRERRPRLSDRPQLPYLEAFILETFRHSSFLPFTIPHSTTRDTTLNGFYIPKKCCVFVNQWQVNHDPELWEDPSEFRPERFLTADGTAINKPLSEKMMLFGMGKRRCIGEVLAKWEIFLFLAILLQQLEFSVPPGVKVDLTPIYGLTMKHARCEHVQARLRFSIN

[4] = Metabolic stability in mouse liver microsomes assessed as half life; format: ADME, Microsome; details: for t1/2: microsomes
[5] = Metabolic stability in human liver microsomes assessed as half life; format: ADME, Microsome; details: for t1/2: microsomes
[6] = target: Cytochrome P450 2C19 (Homo sapiens, UniProt P33261); assay: (§4) Inhibition of CYP2C19 in human liver microsomes at 10 uM relative to control; format: ADME, Microsome; details: microsomes, 10 µM
[7] = target: Cytochrome P450 2C9 (Homo sapiens, UniProt P11712); assay: (§5) Inhibition of CYP2C9 in human liver microsomes at 10 uM relative to control; format: ADME, Microsome; details: microsomes, 10 µM
[8] = target: T2, Delta-type opioid receptor (Homo sapiens, UniProt P41143); assay: Antagonist activity against human DOR expressed in CHO-K1 cells assessed as maximal inhibition of forskolin-induced cAMP accumulation pretreated for 15 mins followed by forskolin addition measured after 30 mins by HitHunter cAMP assay normalized to naltrexone; format: functional, cell-based; details: filed as antagonist, time 45.0 min
[9] = target: Mu-type opioid receptor (Homo sapiens, UniProt P35372); format: functional, cell-based, CHO-K1
[10] = target: T2, Delta-type opioid receptor
[11] = target: Kappa-type opioid receptor (Homo sapiens, UniProt P41145); format: functional, cell-based, CHO-K1
[12] = target: Glutamate [NMDA] receptor; assay: Inhibition of NMDA receptor (unknown origin); format: protein-complex assay, Homo sapiens
[13] = Metabolic stability in mouse liver microsomes assessed as intrinsic clearance; format: ADME, Microsome
[14] = target: T3, Sodium-dependent noradrenaline transporter (Homo sapiens, UniProt P23975); assay: Inhibition of Norepinephrine transporter (unknown origin)
[15] = target: T4, Sodium-dependent dopamine transporter (Homo sapiens, UniProt Q01959); assay: Inhibition of Dopamine transporter (unknown origin)
[16] = target: hERG (KCNH2) (Homo sapiens, UniProt Q12809); assay: Inhibition of hERG channel assessed as maximal response; format: toxicity; details: read-out: Imax
[17] = target: Voltage-gated inwardly rectifying potassium channel KCNH2 (Homo sapiens, UniProt Q12809); assay: Inhibition of hERG channel; format: toxicity
[18] = target: T5, Rho-associated protein kinase 1 (Homo sapiens, UniProt Q13464); assay: Inhibition of ROCK1 (unknown origin)
[19] = target: CYP3A4 (Homo sapiens, UniProt P08684); assay: as §1; format: ADME, Microsome; details: liver microsomes
[20] = target: CYP2D6 (Homo sapiens, UniProt P10635); assay: as §2; format: ADME, Microsome; details: liver microsomes
[21] = target: CYP1A2 (Homo sapiens, UniProt P05177); assay: as §3; format: ADME, Microsome; details: liver microsomes
[22] = target: CYP2C19 (Homo sapiens, UniProt P33261); assay: as §4; format: ADME, Microsome; details: liver microsomes
[23] = target: CYP2C9 (Homo sapiens, UniProt P11712); assay: as §5; format: ADME, Microsome; details: liver microsomes
[24] = target: Alpha-1A adrenergic receptor (Homo sapiens) (UniProt P35348); assay: Antagonist activity at alpha1A adrenoreceptor (unknown origin) assessed as maximal response; details: filed as antagonist
[25] = target: T3, Sodium-dependent noradrenaline transporter; assay: Inhibition of Norepinephrine transporter (unknown origin) assessed as maximal response
[26] = target: Glutamate [NMDA] receptor (Homo sapiens) (UniProt Q05586+Q12879+Q13224+O15399+O60391+Q14957+Q8TCU5); assay: Inhibition of NMDA receptor (unknown origin) assessed as maximal response; format: protein-complex assay
[27] = target: T4, Sodium-dependent dopamine transporter; assay: Inhibition of Dopamine transporter (unknown origin) assessed as maximal response
[28] = target: T5, Rho-associated protein kinase 1; assay: Inhibition of ROCK1 (unknown origin) assessed as maximal response
[29] = target: D(2) dopamine receptor (Homo sapiens) (UniProt P14416); assay: Antagonist activity at D2S receptor (unknown origin) assessed as maximal response; details: filed as antagonist
[30] = Drug uptake in Sprague-Dawley rat brain at 1 mg/kg, ip by LC-MS/MS analysis; format: ADME, organism-based; details: in vivo
[31] = Half life in Sprague-Dawley rat plasma at 2 mg/kg, ip by LC-MS/MS analysis; format: ADME, organism-based
[32] = Half life in Sprague-Dawley rat plasma at 1 mg/kg, ip by LC-MS/MS analysis; format: ADME, organism-based
[33] = Cmax in Sprague-Dawley rat plasma at 1 mg/kg, ip by LC-MS/MS analysis; format: ADME, organism-based
[34] = Cmax in Sprague-Dawley rat plasma at 2 mg/kg, ip by LC-MS/MS analysis; format: ADME, organism-based

Chain of Cytochrome P450 2C9 (P11712 whole entry): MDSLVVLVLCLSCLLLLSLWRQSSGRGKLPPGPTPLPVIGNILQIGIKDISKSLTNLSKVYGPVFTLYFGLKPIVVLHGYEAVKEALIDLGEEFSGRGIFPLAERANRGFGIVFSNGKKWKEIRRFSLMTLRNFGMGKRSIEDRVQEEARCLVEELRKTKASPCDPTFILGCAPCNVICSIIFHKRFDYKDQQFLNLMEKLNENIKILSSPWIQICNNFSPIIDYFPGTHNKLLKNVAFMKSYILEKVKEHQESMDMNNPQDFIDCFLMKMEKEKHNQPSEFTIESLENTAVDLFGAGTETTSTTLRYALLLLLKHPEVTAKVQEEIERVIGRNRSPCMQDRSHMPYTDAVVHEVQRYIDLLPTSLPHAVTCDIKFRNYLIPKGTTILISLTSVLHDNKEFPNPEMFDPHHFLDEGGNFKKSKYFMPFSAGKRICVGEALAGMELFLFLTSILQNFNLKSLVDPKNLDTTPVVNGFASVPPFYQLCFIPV
Chain of Mu-type opioid receptor (P35372 whole entry): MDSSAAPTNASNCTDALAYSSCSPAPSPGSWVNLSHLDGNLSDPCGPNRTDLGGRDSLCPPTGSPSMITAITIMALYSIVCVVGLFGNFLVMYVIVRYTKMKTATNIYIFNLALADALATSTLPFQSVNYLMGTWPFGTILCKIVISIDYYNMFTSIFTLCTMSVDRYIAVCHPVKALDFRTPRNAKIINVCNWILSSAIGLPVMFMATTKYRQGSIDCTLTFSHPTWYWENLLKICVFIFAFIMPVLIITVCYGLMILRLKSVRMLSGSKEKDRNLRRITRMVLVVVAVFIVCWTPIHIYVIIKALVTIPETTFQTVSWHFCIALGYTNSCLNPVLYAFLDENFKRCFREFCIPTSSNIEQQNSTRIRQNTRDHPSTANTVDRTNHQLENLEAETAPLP
Chain of Cytochrome P450 2D6 (P10635 whole entry): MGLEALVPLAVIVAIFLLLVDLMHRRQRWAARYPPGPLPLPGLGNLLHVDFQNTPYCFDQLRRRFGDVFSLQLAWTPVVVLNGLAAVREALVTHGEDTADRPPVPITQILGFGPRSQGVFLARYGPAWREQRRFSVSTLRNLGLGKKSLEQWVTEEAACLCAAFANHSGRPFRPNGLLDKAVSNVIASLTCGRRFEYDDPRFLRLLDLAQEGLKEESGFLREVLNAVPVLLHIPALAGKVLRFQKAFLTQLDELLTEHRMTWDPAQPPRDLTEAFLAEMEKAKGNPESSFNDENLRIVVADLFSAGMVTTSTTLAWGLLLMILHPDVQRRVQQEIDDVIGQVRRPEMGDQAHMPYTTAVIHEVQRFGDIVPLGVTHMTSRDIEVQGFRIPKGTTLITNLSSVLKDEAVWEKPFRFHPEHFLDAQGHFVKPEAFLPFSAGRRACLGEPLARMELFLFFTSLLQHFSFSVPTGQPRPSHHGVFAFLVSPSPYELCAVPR
Chain of Cytochrome P450 2C19 (P33261 whole entry): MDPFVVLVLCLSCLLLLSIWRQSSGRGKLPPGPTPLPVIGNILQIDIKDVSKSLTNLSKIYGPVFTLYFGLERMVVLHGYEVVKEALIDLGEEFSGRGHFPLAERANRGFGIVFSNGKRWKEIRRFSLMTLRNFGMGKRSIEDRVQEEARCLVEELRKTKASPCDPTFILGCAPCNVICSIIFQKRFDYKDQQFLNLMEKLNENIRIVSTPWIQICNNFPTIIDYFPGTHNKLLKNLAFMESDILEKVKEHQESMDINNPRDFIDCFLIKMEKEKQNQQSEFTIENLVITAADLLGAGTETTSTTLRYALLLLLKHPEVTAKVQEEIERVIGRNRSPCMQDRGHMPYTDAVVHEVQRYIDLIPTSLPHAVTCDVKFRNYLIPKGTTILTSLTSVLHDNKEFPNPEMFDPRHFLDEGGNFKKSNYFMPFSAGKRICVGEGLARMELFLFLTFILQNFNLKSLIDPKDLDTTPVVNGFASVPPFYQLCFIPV
T2 sequence (P41143 whole entry): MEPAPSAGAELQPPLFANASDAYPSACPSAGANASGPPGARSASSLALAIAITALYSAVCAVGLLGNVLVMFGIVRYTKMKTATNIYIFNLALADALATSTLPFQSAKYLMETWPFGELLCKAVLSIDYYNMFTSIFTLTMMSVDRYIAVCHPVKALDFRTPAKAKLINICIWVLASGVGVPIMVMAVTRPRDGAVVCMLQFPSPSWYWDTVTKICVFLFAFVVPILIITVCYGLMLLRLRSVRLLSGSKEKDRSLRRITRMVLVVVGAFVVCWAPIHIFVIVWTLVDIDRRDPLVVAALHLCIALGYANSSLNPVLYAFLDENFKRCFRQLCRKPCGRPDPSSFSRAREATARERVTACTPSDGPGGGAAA
Chain of Cytochrome P450 3A4 (P08684 whole entry): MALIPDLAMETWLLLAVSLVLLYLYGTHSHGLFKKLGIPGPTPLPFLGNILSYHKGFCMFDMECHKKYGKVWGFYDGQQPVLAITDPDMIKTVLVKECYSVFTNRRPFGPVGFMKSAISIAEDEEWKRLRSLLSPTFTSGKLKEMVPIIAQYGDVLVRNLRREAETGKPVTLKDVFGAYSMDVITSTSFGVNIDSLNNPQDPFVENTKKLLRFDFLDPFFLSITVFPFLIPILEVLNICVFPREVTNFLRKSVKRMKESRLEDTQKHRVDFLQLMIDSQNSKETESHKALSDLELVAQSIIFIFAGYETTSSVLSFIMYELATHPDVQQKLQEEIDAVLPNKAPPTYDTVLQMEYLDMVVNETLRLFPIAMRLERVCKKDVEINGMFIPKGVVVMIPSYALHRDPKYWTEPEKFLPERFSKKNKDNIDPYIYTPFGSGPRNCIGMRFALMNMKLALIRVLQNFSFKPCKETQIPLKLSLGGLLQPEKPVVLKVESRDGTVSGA
T4 sequence (Q01959 whole entry): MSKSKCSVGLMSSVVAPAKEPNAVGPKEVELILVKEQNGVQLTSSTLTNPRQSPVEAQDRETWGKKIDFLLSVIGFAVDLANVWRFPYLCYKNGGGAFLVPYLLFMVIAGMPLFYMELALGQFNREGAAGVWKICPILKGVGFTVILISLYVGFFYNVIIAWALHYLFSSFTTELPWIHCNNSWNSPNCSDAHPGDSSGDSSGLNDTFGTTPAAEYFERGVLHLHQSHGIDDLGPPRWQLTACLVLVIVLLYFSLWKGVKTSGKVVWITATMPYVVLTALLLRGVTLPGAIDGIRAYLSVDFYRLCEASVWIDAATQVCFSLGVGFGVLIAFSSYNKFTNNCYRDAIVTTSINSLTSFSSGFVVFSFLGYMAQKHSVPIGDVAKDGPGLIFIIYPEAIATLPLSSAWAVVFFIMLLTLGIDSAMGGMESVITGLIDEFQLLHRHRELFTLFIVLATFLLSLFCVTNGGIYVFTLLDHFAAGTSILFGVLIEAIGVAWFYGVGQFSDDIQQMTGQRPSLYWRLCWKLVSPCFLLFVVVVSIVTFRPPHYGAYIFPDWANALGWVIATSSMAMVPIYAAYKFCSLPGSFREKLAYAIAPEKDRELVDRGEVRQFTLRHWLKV
T3 sequence (P23975 whole entry): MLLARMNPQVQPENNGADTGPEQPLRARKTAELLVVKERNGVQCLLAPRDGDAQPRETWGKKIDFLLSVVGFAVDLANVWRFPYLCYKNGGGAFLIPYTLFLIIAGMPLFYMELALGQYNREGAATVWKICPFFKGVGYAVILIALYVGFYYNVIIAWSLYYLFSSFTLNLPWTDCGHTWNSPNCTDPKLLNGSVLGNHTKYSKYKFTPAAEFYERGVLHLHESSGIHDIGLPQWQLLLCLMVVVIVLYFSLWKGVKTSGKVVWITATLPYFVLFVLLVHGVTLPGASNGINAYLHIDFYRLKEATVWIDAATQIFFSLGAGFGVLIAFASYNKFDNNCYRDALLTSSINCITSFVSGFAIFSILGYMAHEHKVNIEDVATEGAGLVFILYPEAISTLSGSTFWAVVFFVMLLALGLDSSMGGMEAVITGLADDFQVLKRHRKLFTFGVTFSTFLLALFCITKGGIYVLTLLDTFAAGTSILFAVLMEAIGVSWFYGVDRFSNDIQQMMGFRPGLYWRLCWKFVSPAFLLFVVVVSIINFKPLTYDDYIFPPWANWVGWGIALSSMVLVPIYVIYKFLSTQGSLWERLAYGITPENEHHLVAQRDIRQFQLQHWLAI
Chain of Kappa-type opioid receptor (P41145 whole entry): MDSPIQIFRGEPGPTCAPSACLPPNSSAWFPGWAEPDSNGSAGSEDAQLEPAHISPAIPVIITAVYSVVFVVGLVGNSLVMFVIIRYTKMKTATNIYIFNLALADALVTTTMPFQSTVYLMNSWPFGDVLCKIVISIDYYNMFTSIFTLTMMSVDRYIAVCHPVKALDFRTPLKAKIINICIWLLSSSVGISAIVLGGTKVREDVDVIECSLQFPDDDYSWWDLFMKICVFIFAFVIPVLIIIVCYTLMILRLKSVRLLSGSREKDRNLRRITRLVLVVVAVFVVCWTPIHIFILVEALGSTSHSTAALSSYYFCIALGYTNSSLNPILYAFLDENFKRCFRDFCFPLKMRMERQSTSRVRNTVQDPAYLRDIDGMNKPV
Chain of CYP2C9 (P11712 whole entry): as the sequence (P11712 whole entry) above
Chain of CYP2D6 (P10635 whole entry): as the sequence (P10635 whole entry) above
Chain of CYP3A4 (P08684 whole entry): as the sequence (P08684 whole entry) above

With `C=C1CC[C@@]2(O)[C@H]3Cc4ccc(O)c5c4[C@@]2(CCN3CC2CC2)[C@H]1O5` the “inhibition (INH)” value [1] was 0.2%, the “inhibition (INH)” value [2] was 68.2% and the “inhibition (INH)” value [3] was 0%. The t1/2 [4] was 87.1 min, the t1/2 [5] was over 145 min and the “inhibition (INH)” value [6] was 0%. The “inhibition (INH)” value [7] was 0%.
With `NC(=O)c1ccc(Oc2ccc(CNCCc3ccccc3)cc2Cl)nc1` the “inhibition (INH)” value [1] was 0%, the “inhibition (INH)” value [2] was 45.4% and the Imax [8] was 158%. The “inhibition (INH)” value [3] was 12.1%, the t1/2 [4] was 13.6 min and the t1/2 [5] was 110.2 min. The “inhibition (INH)” value [6] was 9.1%, the IC50 [9] was 1.26 nM and the “inhibition (INH)” value [7] was 4.8%.
Compound `NC(=O)c1ccc(Oc2ccc(CNCCc3ccccc3)cc2OCc2ccccc2)nc1` has an Imax [8] of 152%, an IC50 [10] of 3.98 nM and an IC50 [9] of 3.16 nM.
In the case of `COc1cc(CNCCC(C)C)ccc1Oc1ccc(C(N)=O)cn1`, the “inhibition (INH)” value [1] is reported as 3.8%, the “inhibition (INH)” value [2] is reported as 35.2% and the Imax [8] is reported as 187%. The “inhibition (INH)” value [3] was 0%, the IC50 [10] was 5.01 nM and the t1/2 [4] was over 145 min. For the same compound, the t1/2 [5] was over 145 min, the “inhibition (INH)” value [6] was 21.7% and the IC50 [9] was 2 nM. The “inhibition (INH)” value [7] was 9.7%.
Compound `C=CCN1CC[C@]23c4c5ccc(O)c4O[C@H]2[C@@H](OCCOCCOCCOCCOCCOCCOCCOC)CC[C@@]3(O)[C@H]1C5` has an Imax [8] of 103%.
For `COc1cc(CNCCC2CCCCC2)ccc1Oc1ccc(C(N)=O)cn1`, the IC50 [9] was 3.16 nM.
With `NC(=O)c1ccc(Oc2ccc(CNCCc3ccccc3)cc2)cc1` the “inhibition (INH)” value [1] was 0%, the “inhibition (INH)” value [2] was 66.4% and the “inhibition (INH)” value [3] was 0%. The t1/2 [4] was 7.6 min, the t1/2 [5] was over 145 min and the “inhibition (INH)” value [6] was 27.7%. The IC50 [11] was 10 nM and the “inhibition (INH)” value [7] was 9.5%.
For `NC(=O)c1ccc(Oc2ccc(CNCCc3ccccc3)cc2)nc1` [listing 1 of 2 here], the “inhibition (INH)” value [1] was 6.8%, the “inhibition (INH)” value [2] was 72.7% and the IC50 [12] was 4980 nM. The “inhibition (INH)” value [3] was 0.6%, the t1/2 [4] was 62.9 min and the CLH [13] was 22.05 µL/min/mg. For the same compound, the IC50 [14] was 1500 nM, the t1/2 [5] was over 145 min and the “inhibition (INH)” value [6] was 11.6%. It also gave an IC50 [15] of 3020 nM, an Emax [16] of 63.7% and an IC50 [17] of 5550 nM. It also gave an IC50 [18] of 3740 nM.
Work on `COc1cc(CNC2Cc3ccccc3C2)ccc1Oc1ccc(C(N)=O)cn1` yielded an Imax [8] of 168%, an IC50 [10] of 0.631 nM and an IC50 [11] of 10 nM. It also gave an IC50 [9] of 0.398 nM.
With `COc1cc(CNCCc2ccccc2)ccc1Oc1ccc(C(N)=O)cn1` the “inhibition (INH)” value [1] was 7.8%, the “inhibition (INH)” value [2] was 61.2% and the Imax [8] was 157%. For the same compound, the “inhibition (INH)” value [3] was 1%, the t1/2 [4] was 41.9 min and the t1/2 [5] was over 145 min. For the same compound, the “inhibition (INH)” value [6] was 1.6% and the “inhibition (INH)” value [7] was 13.1%.
In the case of `CC(C)(NC(=O)C1=C(O)[C@@H]2Oc3c(O)ccc4c3[C@@]23CCN(CC2CC2)[C@H](C4)[C@]3(O)C1)c1nc(-c2ccccc2)no1` [NALDEMEDINE], the IC50 [9] is reported as 3.16 nM.
In the case of `C[C@H]1CN(CC[C@H](O)C2CCCCC2)CC[C@@]1(C)c1cccc(O)c1`, the inhibition at 10 µM [19] is reported as 0%, the inhibition at 10 µM [20] is reported as 86.4% and the Imax [8] is reported as 155%. It also gave an inhibition at 10 µM [21] of 14.5%, an IC50 [10] of 3.98 nM and a half-life ([4]; liver microsomes) of 1.9 min. The half-life ([5]; liver microsomes) was 6.4 min, the inhibition at 10 µM [22] was 35.1% and the inhibition at 10 µM [23] was 11.9%.
With `C=CC[N+]1(C)CC[C@]23c4c5ccc(O)c4O[C@H]2C(=O)CC[C@@]3(O)[C@H]1C5` (stereo partly drawn) [NALOXONE METHIODIDE] the IC50 [9] was 631 nM.
Work on `NC(=O)c1ccc(Oc2ccc(CNCCc3ccccc3)cc2)nc1` [listing 2 of 2 here] yielded an Imax [24] of 99.9%, an Imax [25] of 83.9% and an Imax [8] of 230%. It also gave an Imax [26] of 64.3%, an Imax [27] of 71.5% and an Imax [28] of 76.1%. The Emax [29] was 99.4%.
For `Cl.NC(=O)c1ccc(Oc2ccc(CNCCc3ccccc3)cc2)nc1`, the Drug uptake [30] was “Not_active”, the half-life [31] was 20.9 min and the half-life [32] was 91.2 min. For the same compound, the Cmax [33] was 92.8 ng/mL and the Cmax [34] was 182 ng/mL.
`C=CCN1CC[C@]23c4c5ccc(O)c4O[C@H]2C(=O)CC[C@@]3(O)[C@H]1C5` [NALOXONE] gave a half-life [31] of 20.9 min.
